# Assay results published in patent publication US9931372B2, “Synthetic apelin fatty acid conjugates with improved half-life” (Novartis AG, priority 2015, dated 2018).
# pEC50: −log10 of the molar value. Like-named read-outs stand apart in the source and are kept apart here. Bridge positions count the residues as written; N and C are the ends. Square brackets hold non-standard residues; d marks the D form. Peptide text beside a SMILES is read from it. * marks the point of attachment. PEG24 = NCCOCCOCCOCCOCCOCCOCCOCCOCCOCCOCCOCCOCCOCCOCCOCCOCCOCCOCCOCCOCCOCCOCCOCCOCCC(=O)O; Malonyl(C11H23,(CH2)10COOH) = CCCCCCCCCCCC(CCCCCCCCCCC(=O)O)(C(=O)O)C(=O)*; PEG12 = NCCOCCOCCOCCOCCOCCOCCOCCOCCOCCOCCOCCOCCC(=O)O; pGlu = O=C1CC[C@@H](C(=O)O)N1; PEG4 = NCCOCCOCCOCCOCCC(=O)O; Nle = CCCC[C@H](N)C(=O)O
# Assays:
# [1] = Surrogate activity-based plasma stability assay; type: in vitro ADME; conditions: rat
# Excerpt: Surrogate Activity-Based Plasma Stability Assay:
# 2) Calculate slope of value above and […]
# [2] = molecular target: T1, hAPJ (Homo sapiens, UniProt P35414); test: hAPJ Calcium flux assay; type: cell-based
# T1 sequence (P35414 1-380): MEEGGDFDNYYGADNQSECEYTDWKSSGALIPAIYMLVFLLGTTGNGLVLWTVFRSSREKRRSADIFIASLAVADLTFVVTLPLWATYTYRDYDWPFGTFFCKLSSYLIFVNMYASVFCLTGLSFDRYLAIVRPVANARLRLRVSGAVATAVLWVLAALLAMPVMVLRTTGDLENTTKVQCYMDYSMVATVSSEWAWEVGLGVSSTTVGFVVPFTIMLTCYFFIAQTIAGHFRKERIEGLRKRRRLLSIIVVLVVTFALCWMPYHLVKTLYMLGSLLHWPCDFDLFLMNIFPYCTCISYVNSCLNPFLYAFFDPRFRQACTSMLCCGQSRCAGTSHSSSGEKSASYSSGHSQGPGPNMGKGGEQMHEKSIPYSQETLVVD
# Procedure: Chem-5 APJ stable cells (Millipore # HTS068C) were plated in 384-well format with 10,000 cells/well in 25 ul growth media, then grown 24 hours in a 37° C. tissue culture incubator. One hour before the assay, 25 ul/well FLIPR Calcium 4 dye (Molecular Devices R8142) with 2.5 mM probenecid was added, and cells were incubated one hour in a 37° C. tissue culture incubator. Bioconjugates were solubilized in HBSS, HEPES & 0.1% BSA buffer, and serially-diluted 10-fold, from 50 uM to 5 pM, in triplicate. FLIPR Tetra was used to add bioconjugates to the cells with dye (1:5, for final bioconjugate concentrations ranging from 10 uM to 1 pM). FLIPR dye inside the cells emitted fluorescence after binding to calcium, while fluorescence from outside the cells was masked. Fluorescence was measured using 470-495 excitation and 515-575 emission wavelengths on the FLIPR Tetra. Readings were done for 3 minutes total, beginning 10 seconds before the bioconjugate addition. Maximum-minimum values were calculated and plotted for each bioconjugate concentration, and GraphPad prism software was used to calculate EC50 values at the curve inflection points, for calcium flux stimulation by bioconjugates.
# [3] = In vivo pharmacokinetic assessment via SC dosing; conditions: mouse, C57/B6 mice, subcutaneous dosing, plasma, read-out: t½ (converted)
# Procedure: Protocols and Data for the In Vivo Pharmacokinetic Assessment Via SC Dosing. Formulation, Dosing and Sample Acquisition: […]
# Example 1 and example 4 were dissolved to 0.1 mg/ml concentration in 30% (w/v) PEG300 and 5% (w/v) dextrose in PBS. C57/B6 mice (˜20 weeks of age) were dosed with dissolved compound by subcutaneous (SC) injection into the flank (n=4 per compound). Injection volume was 10 ml/kg. Blood samples were withdrawn from the saphenous vein at 3 and 6 hours post-dose, as well as at 1, 2, 4, 7 and 10 days post dose. Blood samples were immediately centrifuged at 4000×g for 10 min. Plasma supernatant (10 μL) was transferred to a 96-well plate and frozen at −80 C until analysis.
# C57/B6J mice (˜22 weeks of age) were dosed with dissolved compound by SC injection (n=4). Blood samples were withdrawn from the tail vein at 15, 30, 60 and 120 minutes post injection. These were immediately centrifuged and then plasma supernatant was transferred to a 96-well plate and frozen at −80 C until analysis.
# Preparation of Samples for Bioanalysis:
# A pre-weighed sample of each compound (1-3 mg) was obtained and dissolved to 1 mg/ml in DMSO. These were diluted serially in mouse plasma (BioReclamation) to final concentrations of 10,000, 5,000, 1,000, 500, 100, 50, 10, 5, and 1 ng/ml to make standard curve for analysis.
# Plasma samples from PK studies were thawed and diluted to 25 μL total volume by addition of mouse plasma.
# 25 μL aliquots of each sample and standard curve sample were arranged on a 96-well plate.
# 150 μL acetonitrile containing 100 ng/ml glyburide as internal standard was added to each sample and the samples vortexed for 30 seconds. Samples were then centrifuged at 4000×g for 10 minutes. 125 μL supernatant was then transferred to a fresh 96-well plate. 50 μL of water was added and mixed by vortexing for 30 seconds.
# LC/MS Bioanalysis (Agilent 1290):
# Samples (10 μL) were transferred to an HPLC using a CTC PAL autosampler. The LC column was ACE C18 30×2.1 mm, 3.0 μm bead. […]
# [4] = Chem-5 APJ stable cells, FLIPR calcium flux, read-out: hAPJ Ca^2+ Flux EC50
"pEC50 [2, 4]",SMILES,half-life [1] [h],half-life ([3]; 1 mg/kg) [h],pEC50 [2],half-life [3] [h]
6.95,"CCCCCCCCCCCC(CCCCCCCCCCC(=O)O)(C(=O)O)C(=O)NCCOCCOCCOCCOCCOCCOCCOCCOCCOCCOCCOCCOCCOCCOCCOCCOCCOCCOCCOCCOCCOCCOCCOCCOCCC(=O)N[C@@H](CCC(N)=O)C(=O)N[C@@H](CCCNC(=N)N)C(=O)N1CCC[C@H]1C(=O)N[C@@H](CCCNC(=N)N)C(=O)N[C@@H](CC(C)C)C(=O)N[C@H]1CSSC[C@@H](C(=O)N[C@@H](Cc2ccccc2)C(=O)O)NC(=O)[C@H](CCCC)NC(=O)[C@@H]2CCCN2C(=O)CNC(=O)[C@H](CCCCN)NC(=O)[C@H](Cc2cnc[nH]2)NC1=O (stereo partly drawn) [Example 1, Fatty Acid-Linker#1Q-R-P-R-L-C*-H-K-G-P-(Nle)-C*-F (C6-C12 Disulfide Bridge)] ({Malonyl(C11H23,(CH2)10COOH)-PEG24}-QRPRLCHKGP[Nle]CF-OH; disulfide 6-12)",> 16.7,43,,
7.07,"CCCCCCCCCCCC(CCCCCCCCCCC(=O)O)(C(=O)O)C(=O)NCCOCCOCCOCCOCCOCCOCCOCCOCCOCCOCCOCCOCCC(=O)N[C@@H](CCC(N)=O)C(=O)N[C@@H](CCCNC(=N)N)C(=O)N1CCC[C@H]1C(=O)N[C@@H](CCCNC(=N)N)C(=O)N[C@@H](CC(C)C)C(=O)N[C@H]1CSSC[C@@H](C(=O)N[C@@H](Cc2ccccc2)C(=O)O)NC(=O)[C@H](CCCC)NC(=O)[C@@H]2CCCN2C(=O)CNC(=O)[C@H](CCCCN)NC(=O)[C@H](Cc2cnc[nH]2)NC1=O (some centres unmarked) [Example 2] ({Malonyl(C11H23,(CH2)10COOH)-PEG12}-QRPRLCHKGP[Nle]CF-OH; disulfide 6-12)",> 16.7,,,
6.80,"CCCCCCCCCCCC(CCCCCCCCCCC(=O)O)(C(=O)O)C(=O)NCCOCCOCCOCCOCCC(=O)N[C@@H](CCC(N)=O)C(=O)N[C@@H](CCCNC(=N)N)C(=O)N1CCC[C@H]1C(=O)N[C@@H](CCCNC(=N)N)C(=O)N[C@@H](CC(C)C)C(=O)N[C@H]1CSSC[C@@H](C(=O)N[C@@H](Cc2ccccc2)C(=O)O)NC(=O)[C@H](CCCC)NC(=O)[C@@H]2CCCN2C(=O)CNC(=O)[C@H](CCCCN)NC(=O)[C@H](Cc2cnc[nH]2)NC1=O (some centres unmarked) [Example 4] ({Malonyl(C11H23,(CH2)10COOH)-PEG4}-QRPRLCHKGP[Nle]CF-OH; disulfide 6-12)",> 16.7,23,,
,"CCCC[C@@H]1NC(=O)[C@@H]2CCCN2C(=O)CNC(=O)[C@H](CCCCN)NC(=O)[C@H](Cc2cnc[nH]2)NC(=O)[C@@H](NC(=O)[C@H](CC(C)C)NC(=O)[C@H](CCCNC(=N)N)NC(=O)[C@@H]2CCCN2C(=O)[C@H](CCCNC(=N)N)NC(=O)[C@@H]2CCC(=O)N2)CSSC[C@@H](C(=O)N[C@@H](Cc2ccccc2)C(=O)O)NC1=O [pE-R-P-R-L-C*-H-K-G-P-Nle-C*-F-OH, reference compound] ([pGlu]RPRLCHKGP[Nle]CF-OH; disulfide 6-12)",2.2,,9.00,0.52
